{"source": "paper PMC7044277", "about": "(Nature Communications, 2020)", "type_in_all_cases": "cell-based", "key": {"320 non-olfactory GPCRs [1]": {"biological_target": "320 non-olfactory GPCRs (Homo sapiens, UniProt P21917)", "sequence (P21917 whole entry)": "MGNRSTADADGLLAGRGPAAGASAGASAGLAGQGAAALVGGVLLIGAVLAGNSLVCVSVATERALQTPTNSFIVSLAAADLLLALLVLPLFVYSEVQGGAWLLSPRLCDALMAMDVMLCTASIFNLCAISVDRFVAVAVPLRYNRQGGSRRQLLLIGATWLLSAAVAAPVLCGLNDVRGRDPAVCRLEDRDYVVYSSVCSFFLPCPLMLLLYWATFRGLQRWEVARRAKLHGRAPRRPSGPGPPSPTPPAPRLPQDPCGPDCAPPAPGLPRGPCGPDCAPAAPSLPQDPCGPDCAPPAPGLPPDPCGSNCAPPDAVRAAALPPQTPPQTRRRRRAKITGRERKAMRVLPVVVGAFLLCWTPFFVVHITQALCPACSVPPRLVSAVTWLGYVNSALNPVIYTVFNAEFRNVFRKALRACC"}, "320 non-olfactory GPCRs [2]": {"biological_target": "T1, 320 non-olfactory GPCRs (Homo sapiens, UniProt P37288)", "T1 construct": "expressed in transfected cells; host or cells: HTLA cells", "T1 sequence (P37288 whole entry)": "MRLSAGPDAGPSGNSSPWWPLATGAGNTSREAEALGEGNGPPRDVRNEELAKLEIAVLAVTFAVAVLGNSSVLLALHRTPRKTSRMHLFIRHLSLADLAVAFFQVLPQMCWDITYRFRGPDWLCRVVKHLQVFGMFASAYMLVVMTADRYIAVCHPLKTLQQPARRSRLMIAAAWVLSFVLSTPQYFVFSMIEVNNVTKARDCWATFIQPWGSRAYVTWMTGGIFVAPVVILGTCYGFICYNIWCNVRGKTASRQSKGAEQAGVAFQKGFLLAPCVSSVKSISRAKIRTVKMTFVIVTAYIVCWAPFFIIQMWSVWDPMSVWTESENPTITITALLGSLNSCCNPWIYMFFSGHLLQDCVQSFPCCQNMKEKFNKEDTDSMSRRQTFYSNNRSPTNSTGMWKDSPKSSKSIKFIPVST"}, "320 non-olfactory GPCRs [3]": {"biological_target": "T2, 320 non-olfactory GPCRs (Homo sapiens, UniProt P49146)", "T2 construct": "expressed in transfected cells; host or cells: HTLA cells", "T2 sequence (P49146 whole entry)": "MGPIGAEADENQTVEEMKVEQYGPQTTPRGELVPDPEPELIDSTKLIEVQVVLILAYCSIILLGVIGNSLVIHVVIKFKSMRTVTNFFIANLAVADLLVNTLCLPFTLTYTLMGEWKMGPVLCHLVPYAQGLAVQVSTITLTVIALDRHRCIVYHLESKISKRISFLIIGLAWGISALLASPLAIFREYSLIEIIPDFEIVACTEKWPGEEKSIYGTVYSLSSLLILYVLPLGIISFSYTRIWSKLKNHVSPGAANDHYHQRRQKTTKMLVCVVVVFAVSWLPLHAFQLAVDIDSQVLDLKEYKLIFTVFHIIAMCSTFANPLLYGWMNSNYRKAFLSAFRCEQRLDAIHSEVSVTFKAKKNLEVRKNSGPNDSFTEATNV", "conditions": "receptor NPY2R; replicate values, Fig_4g"}, "320 non-olfactory GPCRs [4]": {"biological_target": "T3, 320 non-olfactory GPCRs (Homo sapiens, UniProt Q8IZF7)", "T3 construct": "expressed in transfected cells; host or cells: HTLA cells", "T3 sequence (Q8IZF7 whole entry)": "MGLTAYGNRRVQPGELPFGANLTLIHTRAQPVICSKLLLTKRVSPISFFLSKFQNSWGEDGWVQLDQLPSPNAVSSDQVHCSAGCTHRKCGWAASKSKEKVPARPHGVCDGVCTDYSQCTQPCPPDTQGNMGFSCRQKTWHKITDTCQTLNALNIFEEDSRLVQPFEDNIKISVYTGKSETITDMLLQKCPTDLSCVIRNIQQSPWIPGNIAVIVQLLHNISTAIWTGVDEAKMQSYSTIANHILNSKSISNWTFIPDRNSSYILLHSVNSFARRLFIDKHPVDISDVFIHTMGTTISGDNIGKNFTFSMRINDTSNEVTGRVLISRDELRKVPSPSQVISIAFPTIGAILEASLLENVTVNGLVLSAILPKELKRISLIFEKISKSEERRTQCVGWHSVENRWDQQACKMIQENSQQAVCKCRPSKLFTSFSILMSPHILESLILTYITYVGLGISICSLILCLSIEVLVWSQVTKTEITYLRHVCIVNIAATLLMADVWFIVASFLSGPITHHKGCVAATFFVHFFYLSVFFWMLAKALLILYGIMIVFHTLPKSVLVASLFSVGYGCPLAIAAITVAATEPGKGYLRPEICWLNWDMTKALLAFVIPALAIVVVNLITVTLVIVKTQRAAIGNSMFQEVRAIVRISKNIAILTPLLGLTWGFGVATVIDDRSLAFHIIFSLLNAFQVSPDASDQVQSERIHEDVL"}}, "note": "“And” between values parts separate entries of the source, which are not always exact repeats. Identical values can stand only once.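 Throughout, for Fold of Basal: compound tested at 1 µM final concentration.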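 Throughout, for GPCRome agonism screen response: fold over basal response of each receptor without drug.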", "data": [{"smiles": "CCOc1cccc2cc(C(C)NCC3(O)CCCCC3)oc12", "note": "(stereo not shown) [O4LE6]", "values": [{"measurement": "Fold of Basal", "setting": "320 non-olfactory GPCRs [1]", "result": "1.429 and 1.1388 and 0.8668 and 1.288"}, {"measurement": "Fold of Basal", "setting": "320 non-olfactory GPCRs [2]", "result": "0.5721 and 0.4612 and 0.3897 and 0.4481"}, {"measurement": "GPCRome agonism screen response", "setting": "320 non-olfactory GPCRs [3]", "result": "0.7835 and 0.8337 and 0.6188 and 0.7117"}, {"measurement": "Fold of Basal", "setting": "320 non-olfactory GPCRs [4]", "result": "0.7426 and 0.9005 and 0.7298 and 0.9165"}]}]}
